Data from patent US20220402948A1, “EGFR INHIBITOR, COMPOSITION AND PREPARATION METHOD THEREFOR” (BETTA PHARMACEUTICALS CO., LTD., priority 2019, published 2022).

Experiments:
[1] = target: Ba/F3 cells with EGFR Δ19del/T790M/C797S mutation gene stably overexpressed (Homo sapiens, UniProt P00533, T790M/C797S, cells depend on it, form not given); experiment: Ba/F3-Δ19del/T790M/C797S cell proliferation assay (CellTiter Glo, 72 hours); type: cell-based; conditions: Table 2, read-out: EGFR Δ19del/T790M/C797S IC50
Ba/F3 cells with EGFR Δ19del/T790M/C797S mutation gene stably overexpressed, sequence (P00533 with tags, fused parts or gaps DEL746-750/T790M/C797S, form open): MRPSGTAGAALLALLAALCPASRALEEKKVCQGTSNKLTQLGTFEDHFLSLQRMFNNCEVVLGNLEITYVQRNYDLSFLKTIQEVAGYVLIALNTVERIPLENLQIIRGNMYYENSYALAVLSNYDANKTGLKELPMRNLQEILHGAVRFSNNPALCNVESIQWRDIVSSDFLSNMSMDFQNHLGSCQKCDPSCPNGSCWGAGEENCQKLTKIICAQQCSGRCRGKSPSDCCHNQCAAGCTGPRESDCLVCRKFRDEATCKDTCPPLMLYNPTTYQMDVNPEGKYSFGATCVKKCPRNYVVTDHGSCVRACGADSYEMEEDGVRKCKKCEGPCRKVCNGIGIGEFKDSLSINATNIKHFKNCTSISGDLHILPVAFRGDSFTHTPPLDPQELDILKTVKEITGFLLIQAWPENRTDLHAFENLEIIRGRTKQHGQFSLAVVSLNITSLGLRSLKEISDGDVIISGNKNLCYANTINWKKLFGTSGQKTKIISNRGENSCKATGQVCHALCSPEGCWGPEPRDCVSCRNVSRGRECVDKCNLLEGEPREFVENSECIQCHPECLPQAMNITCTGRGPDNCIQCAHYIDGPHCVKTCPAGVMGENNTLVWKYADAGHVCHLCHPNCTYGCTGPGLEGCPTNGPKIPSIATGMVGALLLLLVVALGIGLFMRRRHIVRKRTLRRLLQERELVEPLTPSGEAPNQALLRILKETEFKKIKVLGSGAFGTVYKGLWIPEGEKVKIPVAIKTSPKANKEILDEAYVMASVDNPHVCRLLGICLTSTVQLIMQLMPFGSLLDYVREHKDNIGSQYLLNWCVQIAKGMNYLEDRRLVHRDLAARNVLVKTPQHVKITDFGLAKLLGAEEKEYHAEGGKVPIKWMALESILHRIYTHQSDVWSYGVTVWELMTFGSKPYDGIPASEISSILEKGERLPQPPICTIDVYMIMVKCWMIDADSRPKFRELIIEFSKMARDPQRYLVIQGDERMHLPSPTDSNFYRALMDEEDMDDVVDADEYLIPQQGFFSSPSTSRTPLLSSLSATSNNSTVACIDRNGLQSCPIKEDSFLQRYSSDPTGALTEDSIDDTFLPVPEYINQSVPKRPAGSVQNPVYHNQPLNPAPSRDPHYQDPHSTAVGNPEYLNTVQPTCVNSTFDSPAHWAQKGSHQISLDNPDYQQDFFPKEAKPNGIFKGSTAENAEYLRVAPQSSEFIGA
Procedure: (§1) Cell line: Ba/F3 cells with EGFR Δ19del/T790M/C797S mutation gene stably overexpressed named Ba/F3-Δ119del/T90M/C797S, and A431 and Ba/F3-EGFR wild-type cell line.
(§2) a) Centrifuge the growth cells in logarithmic phase at 1000 rpm for 5 minutes, resuspend the cells in culture medium, and then count the cells;
(§3) b) Inoculate the cells into a 96-well cell culture plate with a density of 2000 cells/well;
(§4) b) Incubate cells in an incubator for another 72 hours.
(§5) a) Take out the 96-well cell culture plate and add 50 μl CTG reagent (CellTiter Glo kit, promega, Cat #G7573);
(§6) b) Shake the plate for 2 minutes and let cool at room temperature for 10 minutes;
(§7) c) Read luminous signal value with PerkinElmer reader,
(§8) Analysis of Experimental Data
(§9) The data were analyzed by GraphPad Prism 6.0 software to obtain the fitting curve of compound activity.
(§10) Y=Min+(Max−Min)/(1+10^((Log IC50−X)*slope));
(§11) X: Logarithm of compound concentration; Y: luminous signal.

A431 = A431 cell proliferation assay (CellTiter Glo, 72 hours); type: cell-based; conditions: Homo sapiens, A-431, 72 h, cell proliferation, A431, 72 hours, Table 2; read-out: A431 IC50
Procedure: as §1
RPMI 1640 and 10% FBS and 1% PS; DMEM and 10% FBS and 1% PS.
a) Dilute the test compound (20 mM stock solution) to 10 mM with 100% DMSO as the starting concentration, and then serially dilute 3 times with a “9+0” concentration in 96-well dilution plate (Cat #P-05525, Labcyte);
b) Dilute compound solution thereof to 1:100 (1:20 for comparative compound 1 and compounds 1-38) in medium to prepare 10-fold working solution;
as §2, §3
a) Compounds prepared at step 2 were added to cell plate with 15 μl per well, the final concentrations were 1000, 333, 111.1, 37, 12.3, 4.1, 1.4, 0.5, 0.2 and 0 nM, and the final concentration of DMSO was 0.1%. The blank control well was a culture medium (0.1% DMSO) (the blank control well of comparative compound 1 and compounds 1-38 was a culture medium (0.5% DMSO).
as §4, §5, §6, §7, §8, §9
Fitting compound IC50 from nonlinear regression equation:
as §10, §11

EGFR WT = EGFR WT (Homo sapiens, UniProt P00533); experiment: EGFR WT kinase test (mobility variation analysis, Caliper EZ Reader); type: biochemical; conditions: kinase enzymatic activity, Table 1
EGFR WT, sequence (P00533 25-1210): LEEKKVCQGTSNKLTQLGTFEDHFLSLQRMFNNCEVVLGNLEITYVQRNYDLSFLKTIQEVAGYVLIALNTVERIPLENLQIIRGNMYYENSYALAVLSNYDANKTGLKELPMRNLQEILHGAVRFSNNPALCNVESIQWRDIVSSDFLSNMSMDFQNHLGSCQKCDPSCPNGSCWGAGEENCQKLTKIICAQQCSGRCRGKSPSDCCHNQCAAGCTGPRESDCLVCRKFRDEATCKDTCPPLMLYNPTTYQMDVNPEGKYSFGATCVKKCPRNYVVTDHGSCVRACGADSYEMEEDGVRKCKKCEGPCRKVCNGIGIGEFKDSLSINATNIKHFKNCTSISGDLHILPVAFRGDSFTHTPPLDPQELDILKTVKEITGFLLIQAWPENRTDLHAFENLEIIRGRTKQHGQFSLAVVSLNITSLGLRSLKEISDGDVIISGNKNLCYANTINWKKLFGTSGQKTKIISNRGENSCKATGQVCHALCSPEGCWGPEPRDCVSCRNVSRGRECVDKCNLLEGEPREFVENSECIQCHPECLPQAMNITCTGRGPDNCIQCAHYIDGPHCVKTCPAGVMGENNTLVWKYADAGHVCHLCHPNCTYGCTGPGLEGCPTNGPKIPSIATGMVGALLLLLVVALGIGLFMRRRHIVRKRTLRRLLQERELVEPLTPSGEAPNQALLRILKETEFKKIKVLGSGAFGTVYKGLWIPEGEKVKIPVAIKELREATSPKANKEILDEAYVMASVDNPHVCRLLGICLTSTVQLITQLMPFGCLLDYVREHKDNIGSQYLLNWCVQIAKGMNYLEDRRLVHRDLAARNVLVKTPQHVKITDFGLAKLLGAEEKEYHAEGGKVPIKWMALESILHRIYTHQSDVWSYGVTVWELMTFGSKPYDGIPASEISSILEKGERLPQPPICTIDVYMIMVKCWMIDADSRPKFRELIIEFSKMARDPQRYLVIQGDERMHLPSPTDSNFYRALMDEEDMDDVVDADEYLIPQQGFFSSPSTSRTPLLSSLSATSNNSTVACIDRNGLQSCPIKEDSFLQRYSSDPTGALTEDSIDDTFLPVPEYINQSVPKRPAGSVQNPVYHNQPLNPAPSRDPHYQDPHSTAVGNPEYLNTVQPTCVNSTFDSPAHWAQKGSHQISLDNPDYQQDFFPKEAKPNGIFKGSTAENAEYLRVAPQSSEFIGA
Procedure: (§12) Mobility variation analysis was performed to determine the affinity of the compound for EGFRΔ19del/T790M/C797S, EGFR WT and IGF1R. The enzymatic reaction scheme is as follows:
(§13) 1. Prepare 1*kinase buffer as follows.
(§14) 3. […] Prepare 2.5-fold final concentration of kinase solution with 1×Kinase buffer.
(§15) 4. Add 10 μL of 2.5-fold final concentration of kinase solution to the compound well and the positive control well; add 10 μL of 1×Kinase buffer to the negative control well.
(§16) 5. Centrifuge at 1000 rpm for 30 s, shake the reaction plate for well mixing, and then incubate at room temperature for 10 minutes.
(§17) 6. Prepare a mixture of ATP and Kinase substrate at 5/3-fold final concentration with 1×Kinase buffer.
(§18) 8. Centrifuge the 384-well plate at 1000 rpm for 30 s, shake it well and then incubate it at room temperature for corresponding time.
(§19) 9. Add 30 μL of stop detection solution to stop the kinase reaction, centrifuge at 1000 rpm for 30 s, and shake it well.
(§20) 10. Read conversion rate with Caliper EZ Reader.
(§21) % Inhibition=((Conversion%_max−Conversion%_sample)/(Conversion%_max−Conversion%_min))*100
(§22) Wherein: Conversion%_sample is the sample conversion rate reading; Conversion%_min: Mean value of negative control wells, representing the conversion rate reading of wells without enzymatic activity; Conversion%_max: Mean value of positive control wells, representing the conversion rate reading of wells without compound inhibition.
(§23) The dose-effect curve was fitted with concentration log value as X-axis and percentage inhibition rate as Y-axis. GraphPad Prism 5 analysis software was used for fitting Log (inhibitor) vs. response—Variable slope with the dose-effect curve to obtain IC50 value of enzymatic activity for each compound.
(§24) The calculation formula is as Y-Bottom+(Top-Bottom)/(1+10^((Log IC50−X)*HillSlope)).

IGF1R = IGF1R (Homo sapiens, UniProt P08069); experiment: IGF1R kinase test (mobility variation analysis, Caliper EZ Reader); type: biochemical; conditions: kinase enzymatic activity, Table 1; read-out: EGFR IGF1R IC50
IGF1R, sequence (P08069 31-1367, species assumed): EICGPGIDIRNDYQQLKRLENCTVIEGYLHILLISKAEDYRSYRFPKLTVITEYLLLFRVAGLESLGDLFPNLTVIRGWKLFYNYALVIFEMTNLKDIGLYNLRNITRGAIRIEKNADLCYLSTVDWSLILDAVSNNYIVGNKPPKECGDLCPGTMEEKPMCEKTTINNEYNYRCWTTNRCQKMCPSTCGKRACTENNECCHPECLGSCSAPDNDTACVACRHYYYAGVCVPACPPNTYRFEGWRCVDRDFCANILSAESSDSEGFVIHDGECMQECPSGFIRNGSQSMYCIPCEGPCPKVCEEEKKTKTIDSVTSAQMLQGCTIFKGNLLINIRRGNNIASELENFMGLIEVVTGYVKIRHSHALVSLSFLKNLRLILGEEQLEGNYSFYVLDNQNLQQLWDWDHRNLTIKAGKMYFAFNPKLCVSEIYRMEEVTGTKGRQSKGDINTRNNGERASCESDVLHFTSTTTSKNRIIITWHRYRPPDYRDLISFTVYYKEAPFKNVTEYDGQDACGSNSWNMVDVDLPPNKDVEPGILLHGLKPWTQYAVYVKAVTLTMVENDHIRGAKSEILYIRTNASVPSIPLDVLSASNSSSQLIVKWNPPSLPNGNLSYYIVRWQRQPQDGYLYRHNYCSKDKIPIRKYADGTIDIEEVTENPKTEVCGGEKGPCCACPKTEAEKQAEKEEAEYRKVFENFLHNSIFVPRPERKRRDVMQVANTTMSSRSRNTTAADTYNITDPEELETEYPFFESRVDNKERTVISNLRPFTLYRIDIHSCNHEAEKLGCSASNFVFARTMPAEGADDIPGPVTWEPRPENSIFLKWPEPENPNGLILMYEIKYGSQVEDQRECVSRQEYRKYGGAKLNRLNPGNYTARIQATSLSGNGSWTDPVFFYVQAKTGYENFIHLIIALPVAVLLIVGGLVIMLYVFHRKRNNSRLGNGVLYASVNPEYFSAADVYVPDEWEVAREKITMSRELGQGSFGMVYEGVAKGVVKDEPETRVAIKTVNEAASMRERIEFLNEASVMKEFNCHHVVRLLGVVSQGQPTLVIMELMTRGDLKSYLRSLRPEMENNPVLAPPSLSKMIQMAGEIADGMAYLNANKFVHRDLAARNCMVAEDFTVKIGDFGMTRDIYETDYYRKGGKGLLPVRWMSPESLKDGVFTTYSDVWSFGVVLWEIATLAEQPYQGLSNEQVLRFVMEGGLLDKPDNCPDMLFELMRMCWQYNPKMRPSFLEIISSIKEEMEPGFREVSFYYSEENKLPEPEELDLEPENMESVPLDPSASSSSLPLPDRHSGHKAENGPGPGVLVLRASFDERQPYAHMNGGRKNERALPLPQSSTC
Procedure: as §12, §13
2. Preparation of compound concentration gradient: The test compound was tested with an initial concentration of 3000 nM (300 nM for some triple mutations and 100 nM for others), diluted in a 384 source plate (96-well plate for comparative compound 1 and compounds 1-38) to a 100% DMSO solution with 100-fold final concentration, and the compound is 3-fold diluted with Precision to 10 concentrations. A dispenser Echo 550 was used to transfer 250 nL 100-fold final concentration of the compound to the target plate OptiPlate-384F.
3. Prepare 2.5-fold final concentration (5-fold for comparative compound 1 and compounds 1-38) of kinase solution with 1×Kinase buffer. Following steps should also be carried out for comparative compound 1 and compounds 1-38: Add each prepared intermediate dilution compounds to the compound wells of 384-well plate respectively, and test the repeated wells of each concentration; add 5% DMSO of 5 plates into the negative control well and the positive control well respectively. Prepare 2.5-fold final concentration of kinase solution with 1×Kinase buffer.
as §15, §16, §17
7. Add 15 μL mixture of 5/3-fold (2.5-fold for comparative compound 1 and compounds 1-38) final concentration of ATP and substrate to start reaction.
as §18, §19, §20, §21, §22, §23, §24

EGFRΔ19del/T790M/C797S = EGFRΔ19del/T790M/C797S (Homo sapiens, UniProt P00533, T790M/C797S, form not given); experiment: EGFR Δ19del/T790M/C797S kinase test (mobility variation analysis, Caliper EZ Reader); type: biochemical; conditions: kinase enzymatic activity, Table 1
EGFRΔ19del/T790M/C797S, sequence (P00533 with tags, fused parts or gaps DEL746-750/T790M/C797S, form open): as the sequence (P00533 with tags, fused parts or gaps DEL746-750/T790M/C797S, form open) above
Procedure: as §12, §13, §14, §15, §16, §17, §18, §19, §20, §21, §22, §23, §24

SMILES | GI50 [1] [nM] | IC50 (A431) [nM] | IC50 (EGFR WT) [nM] | IC50 (IGF1R) [nM] | IC50 (EGFRΔ19del/T790M/C797S) [nM]
CCc1cc(Nc2ncc(Br)c(Nc3ccc(-c4nn(C)c5ncccc45)cc3P(C)(C)=O)n2)c(OC)cc1N1CCC(N2CCN(C)CC2)CC1 [Compound 9, (2-((5-Bromo-2-((5-ethyl-2-methoxy-4-(4-(4-methylpiperazin-1-yl)piperidin-1-yl)phenyl)amino)pyrimidin-4-yl)amino)-5-(1-methyl-1H-pyrazol[3,4-b]pyridin-3-yl)phenyl)dimethylphosphine oxide] | 23.1 | 1450 | 63.4 | 826 | 0.4
CCc1cc(Nc2ncc(Br)c(Nc3ccc(-c4ccc(C#N)cc4)cc3P(C)(C)=O)n2)c(OC)cc1N1CCC(N2CCN(C)CC2)CC1 [Compound 10] | 9.7 | 14300 | 19.5 | 109 | 0.6
CCc1cc(Nc2ncc(Br)c(Nc3ccc(-c4cccc5c4COC5)cc3P(C)(C)=O)n2)c(OC)cc1N1CCC(N2CCN(C)CC2)CC1 [Compound 11, (2-((5-Bromo-2-((5-ethyl-2-methoxy-4-(4-(4-methylpiperazin-1-yl)piperidin-1-yl)phenyl)amino)pyrimidin-4-yl)amino)-5-(1,3-dihydroisobenzofuran-4-yl)phenyl)dimethylphosphine oxide] | 18.9 | 1020 | 28.6 | 494 | 0.6
CCc1cc(Nc2ncc(Br)c(Nc3ccc(-c4nccs4)cc3P(C)(C)=O)n2)c(OC)cc1N1CCC(N2CCN(C)CC2)CC1 [Compound 12, (2-((5-Bromo-2-((5-ethyl-2-methoxy-4-(4-(4-methylpiperazin-1-yl)piperidin-1-yl)phenyl)amino)pyrimidin-4-yl)amino)-5-(thiazol-2-yl)phenyl)dimethylphosphine oxide] | 10.7 | 989 | 13 | 310 | 1.1
CCc1cc(Nc2ncc(Br)c(Nc3ccc(-c4cncc(OC)n4)cc3P(C)(C)=O)n2)c(OC)cc1N1CCC(N2CCN(C)CC2)CC1 [Compound 13] | 40.5 | 1680 | 31.1 | 182 | 0.4
CCc1cc(Nc2ncc(Cl)c(Nc3ccc(-c4cscn4)cc3P(C)(C)=O)n2)c(OC)cc1N1CCC(N2CCN(C)CC2)CC1 [Compound 14, (2-((5-Chloro-2-((5-ethyl-2-methoxy-4-(4-(4-methylpiperazin-1-yl)piperidin-1-yl)phenyl)amino)pyrimidin-4-yl)amino)-5-(thiazol-4-yl)phenyl)dimethylphosphine oxide] | 14.5 | 769 | 13.9 | 149 | 0.4
CCc1cc(Nc2ncc(Cl)c(Nc3ccc(-c4ccc5ocnc5c4)cc3P(C)(C)=O)n2)c(OC)cc1N1CCC(N2CCN(C)CC2)CC1 [Compound 17, (5-(Benzo[d]oxazol-5-yl)-2-((5-chloro-2-((5-ethyl-2-methoxy-4-(4-(4-methylpiperazin-1-yl)piperidin-1-yl)phenyl)amino)pyrimidin-4-yl)amino)phenyl)dimethylphosphine oxide] | 30 | 2200 | 20.1 | 363 | 0.7
CCc1cc(Nc2ncc(Cl)c(Nc3ccc(-c4ncc(F)cn4)cc3P(C)(C)=O)n2)c(OC)cc1N1CCC(N2CCN(C)CC2)CC1 [Compound 18, (2-((5-Chloro-2-((5-ethyl-2-methoxy-4-(4-(4-methylpiperazin-1-yl)piperidin-1-yl)phenyl)amino)pyrimidin-4-yl)amino)-5-(5-fluoropyrimidin-2-yl)phenyl)dimethylphosphine oxide] | 13.2 | 1270 | 20.3 | 126 | 0.7
CCc1cc(Nc2ncc(Cl)c(Nc3ccc(-c4nccc(OC)n4)cc3P(C)(C)=O)n2)c(OC)cc1N1CCC(N2CCN(C)CC2)CC1 [Compound 19, (2-((5-Chloro-2-((5-ethyl-2-methoxy-4-(4-(4-methylpiperazin-1-yl)piperidin-1-yl)phenyl)amino)pyrimidin-4-yl)amino)-5-(4-methoxypyrimidin-2-yl)phenyl)dimethylphosphine oxide] | 29.6 | 864 | 22 | 144 | 0.6
CCc1cc(Nc2ncc(Br)c(Nc3ccc(-c4ncc(C)cn4)cc3P(C)(C)=O)n2)c(OC)cc1N1CCC(N2CCN(C)CC2)CC1 [Compound 21, (2-((5-Bromo-2-((5-ethyl-2-methoxy-4-(4-(4-methylpiperazin-1-yl)piperidin-1-yl)phenyl)amino)pyrimidin-4-yl)amino)-5-(5-methylpyrimidin-2-yl)phenyl)dimethylphosphine oxide] | 8.8 | 1390 | 25.6 | 224 | 0.7
CCc1cc(Nc2ncc(Br)c(Nc3ccc(-c4cncnc4)cc3P(C)(C)=O)n2)c(OC)cc1N1CCC(N2CCN(C)CC2)CC1 [Compound 22, (2-((5-Bromo-2-((5-ethyl-2-methoxy-4-(4-(4-methylpiperazin-1-yl)piperidin-1-yl)phenyl)amino)pyrimidin-4-yl)amino)-5-(pyrimidin-5-yl)phenyl)dimethylphosphine oxide] | 20.5 | 831 | 40.8 | 120 | 0.3
CCc1cc(Nc2ncc(Cl)c(Nc3ccc(-c4cnc(OC)nc4)cc3P(C)(C)=O)n2)c(OC)cc1N1CCC(N2CCN(C)CC2)CC1 [Compound 25, (2-((5-Chloro-2-((5-ethyl-2-methoxy-4-(4-(4-methylpiperazin-1-yl)piperidin-1-yl)phenyl)amino)pyrimidin-4-yl)amino)-5-(2-methoxypyrimidin-5-yl)phenyl)dimethylphosphine oxide] | 22.4 | 1700 | 37.6 | 169 | 0.4
CCc1cc(Nc2ncc(Br)c(Nc3ccc(-c4ncc(OC)cn4)cc3P(C)(C)=O)n2)c(OC)cc1N1CCC(N2CCN(C)CC2)CC1 [Compound 30] | 15.2 | 8870 | 20.7 | 118 | 0.2
